We go through 6 compounds from patent US7230096B2, “Inhibitors against galectins” (priority 2001, dated 2007).

Assay [1] addresses T1, recombinant human galectin-3 (Homo sapiens, UniProt P17931).
T1 construct: made in house; host or cells: Escherichia coli
The assay is described as follows: Inhibition of galectin-3 binding to Galα3Galβ4GlcNAcβ-HRP conjugate (galectin-3 coated microwells). The following applies: for IC50: competitive inhibition of Galα3Galβ4GlcNAcβ trisaccharide:HRP conjugate binding to galectin-3 coated microwells, five-fold serial dilutions; for Krel: ratio of IC50 of reference compound 25 and IC50 of the inhibitor. As for the experimental part:
NMR-spectra were recorded with a Bruker DRX-400 instrument. Chemical shifts are given in ppm, with reference to internal CHCl3 (δ 7.26 ppm) or HDO (δ 4.81 ppm). Chemical shifts and coupling constants were obtained from ^1H-NMR and proton resonances were assigned from COSY experiments. High-resolution FAB mass spectra (HRMS) were recorded with a JEOL SX-120 instrument. MALDI-TOF Spectra were recorded with a Bruker, Biflex instrument. Column chromatography was performed on SiO2 (Matrex, 60 Å, 35–70 μm, Grace Amicon) and TLC was carried out on SiO2 60 F254 (Merck) with detection under UV light and developed with aqueous sulfuric acid. Concentrations were made using rotary evaporation with bath temperature at or below 40° C. CH2Cl2 and CH3CN were dried by distillation from CaH2. Pyridine was dried over 4 Å molecular sieves. DMF was distilled and dried over 4 Å molecular sieves. MeOH and EtOH were dried over 3 Å molecular sieves. Microwell plates were from Nalge Nunc International (Nunc-immuno plate, maxisorp surface). PBS containing 0.05% Tween 20 is abbreviated PBS-T and PBS-T containing 1% BSA is abbreviated PBSA-T. Recombinant human galectin-3 was produced in Escherichia coli and purified as previously described (S. M. Massa et al, 1993). […] Microwell plates were developed with a TMB-peroxidase substrate kit (BioRad 172–1066) according to the manufacturers recommendations.
The compounds prepared above (12–24) were tested for their ability to inhibiting the binding of galectin-3 to a Galα3Galβ4GlcNAcβ trisaccharide:horseradish peroxidase conjugate.
Screening experiments. […] The wells were washed with PBS-T after 1 hour incubation at room temperature; followed by development with the TMB-peroxidase substrate kit. The reaction was stopped after 60 min by addition of 1N sulfuric acid (100 μL/well) and optical density was read at 450 nm. Each experiment was conducted twice with each sample in duplicate. […] Microtiter plate wells were coated with recombinant galectin-3 (10 μg/ml, 50 μl/well) from E. coli at 4° C. overnight, then washed three times with PBS-T. The wells were blocked with PBSA-T (100 μl/well) for 1 hour at room temperature, followed by washing with PBS-T. To the first well was added 125 μL of inhibitors 16, 18–19and 25 (0.2 mM in PBS-T). A five-fold serial dilution was performed by transfering 25 μL from the first well to a second well containing 100 μL PBS-T, mixing, then transfering 25 μL from the second well to a third well also containing 100 μL PBS-T, and so on to the eight well from which 25 μL were discarded. The dilution series was done in duplicate. […] Incubation, washing, and detection was performed as described above. The data was analyzed with non-linear regression analysis using the program Kaleidagraph™ from Synergy Software.

The test system of a further assay is galectins. The following applies: cited from earlier work.

The IC50 is the concentration that gives 50% inhibition. Broadly, the inhibition is the share of the control response that was lost under treatment. A word on the Kd: it is the free concentration of one partner at which half of the binding sites on the other are occupied at equilibrium, for simple one-to-one binding.

T1 sequence (P17931 whole entry): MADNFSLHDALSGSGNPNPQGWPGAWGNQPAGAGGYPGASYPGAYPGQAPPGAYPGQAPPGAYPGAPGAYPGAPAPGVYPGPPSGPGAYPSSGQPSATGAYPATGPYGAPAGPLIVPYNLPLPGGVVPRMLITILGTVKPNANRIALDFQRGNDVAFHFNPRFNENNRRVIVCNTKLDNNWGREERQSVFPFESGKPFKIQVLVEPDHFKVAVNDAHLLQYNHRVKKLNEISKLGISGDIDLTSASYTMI

For the compound `CO[C@@H]1O[C@H](CO)[C@@H](O[C@@H]2O[C@H](CO)[C@H](O)[C@H](NC(=O)c3ccccc3)[C@H]2O)[C@H](O)[C@H]1NC(C)=O` [Compound 16, methyl 2-acetamido-2-deoxy-4-O-(3-benzamido-3-deoxy-β-D-galactopyranosyl)-β-D-glucopyranoside], in assay [1], the IC50 is 23 µM and the Krel turned out to be 9.

For `COc1c(F)c(F)c(C(=O)N[C@H]2[C@@H](O)[C@@H](CO)O[C@@H](O[C@H]3[C@H](O)[C@@H](NC(C)=O)[C@H](OC)O[C@@H]3CO)[C@@H]2O)c(F)c1F` [Compound 18, methyl 2-acetamido-2-deoxy-4-O-(3-[4-methoxy-2,3,5,6-tetrafluorobenzamido]-3-deoxy-β-D-galactopyranosyl)-β-D-glucopyranoside], in assay [1], the half-maximal inhibitory concentration (IC50) was found to be 4.8 µM and the Krel amounted to 41.

For `CO[C@@H]1O[C@H](CO)[C@@H](O[C@@H]2O[C@H](CO)[C@H](O)[C@H](NC(=O)c3c(F)c(F)c(F)c(F)c3C(=O)O)[C@H]2O)[C@H](O)[C@H]1NC(C)=O` [Compound 19, methyl 2-acetamido-2-deoxy-4-O-(3-[2-carboxy-3,4,5,6-tetrafluorobenzamido]-3-deoxy-β-D-galactopyranosyl)-β-D-glucopyranoside], in assay [1], the IC50 amounted to 11.2 µM and the Krel is on record as 18.

With `CO[C@@H]1O[C@H](CO)[C@@H](O[C@@H]2O[C@H](CO)[C@H](O)[C@H](O)[C@H]2O)[C@H](O)[C@H]1NC(C)=O` [Compound 25, methyl 4-O-β-D-galactopyranosyl-2-acetamido-2-deoxy-β-D-glucopyranoside, reference compound], in assay [1] (40 μM inhibitor concentration, screening experiment, read-out: Percent inhibition of Galα3Galβ4GlcNAcβ:HRP conjugate binding to galectin-3), the inhibition at 40 µM worked out at 13%. In assay [1], the IC50 came out at 199 µM and the Krel turned out to be 1.

Turning to `O=C[C@H](O)[C@@H](O)[C@@H](O)[C@H](O)CO` [D-galactose], the “affinity relative to lactose (times lower)” value with galectins (galectins, compared with lactose) was 50–100 times lower.

Turning to `OC[C@H]1O[C@@H](O[C@H]2[C@H](O)[C@@H](O)C(O)O[C@@H]2CO)[C@H](O)[C@@H](O)[C@H]1O` (some centres unmarked) [lactose], the Kd at galectins (all galectins) is 500 to 1000 µM.
